Literature values as cited in PMC13231908, “Evaluating acridones as novel therapeutics for human babesiosis” (Antimicrobial Agents and Chemotherapy, 2026).

Settings: mouse, in vivo, po, 80 mg/kg

Row | Compound | AUCinf | AUClast
2 | O=c1c2cc(F)c(Oc3ccc(OC(F)(F)F)cc3)cc2[nH]c2cc(Cl)cc(F)c12 [T226] | 95.7 ng·h/mL | 33.9 ng·h/mL
